Test results: US12473296B2, “Perk inhibiting compounds” (HiberCell, Inc., priority 2019, dated 2025)
pIC50: −log10 of the molar value.

Experiments:
[1] = target: EIF2AK3 (PERK) catalytic domain (amino acids 536-1116) (Homo sapiens (Human), UniProt Q9NZJ5); assay: PERK in vitro activity assay (isolated), TR-FRET kinase assay; conditions: isolated PERK enzyme, 1.5 μM ATP, GFP-eIF2a substrate; read-out: Biochemical IC50
Description: PERK In Vitro Activity Assay (Isolated):
In vitro Inhibition of PERK Enzyme Activity (isolated) Recombinant human EIF2AK2 (PKR) catalytic domain (amino acids 252-551), EIF2AK3 (PERK) catalytic domain (amino acids 536-1116), GFP-eIF2a substrate, and Terbium-labelled phospho-eIF2a antibody is obtained (Invitrogen, Carlsbad, CA).
Express and purify HIS-SUMO-GCN2 catalytic domain (amino acids 584-1019) from E. coli. Perform TR-FRET kinase assays in the absence or presence of inhibitors in a reaction buffer consisting of 50 mM HEPES, pH 7.5, 10 mM MgCb, 1.0 mM EGTA, and 0.01% Brij-35, and 100-200 nM GFP-eIF2a substrate. […] Add test compound, initiate the reaction by addition of enzyme, and incubate at room temperature for 45 minutes. Stop the reaction by addition of EDTA to a final concentration of 10 mM, add Terbium-labelled phospho-eIF2a antibody at a final concentration of 2 nM, and incubate for 90 minutes. Monitor the resulting fluorescence in an EnVison® Multilabel reader (PerkinElmer, Waltham, MA). Determine TR-FRET ratios and the resulting IC50 values using a 4-parameter nonlinear logistic equation as shown: Y=(A+((B−A)/(1+((C/x)[…])))) where, Y=% specific inhibition, A=Bottom of the curve, B=Top of the curve, C=absolute IC50 (concentration causing 50% inhibition), and D=hill slope.

PERK = PERK (Homo sapiens (Human), UniProt Q9NZJ5); assay: PERK cellular assay (TR-FRET, HEK293-EGFP-eIF2α cells, tunicamycin-induced ER stress); type: cell-based; conditions: tunicamycin 2 hours, read-out: Cellular IC50 (μM) (EIF2a)
Protocol: Stable cell lines were created in HEK293 cells using lentiviral particles harboring an expression vector for GFP-eIF2α. Cells were selected using puromycin and enriched using fluorescence activated cell sorting against GFP. HEK293-EGFP-eIF2α cells were plated at 5000 cells/well in 384-well assay plates and incubated overnight at 37° C., 5% CO2. Inhibitor compounds were added to the wells by Echo acoustic dispensing and incubated for 30 minutes at 37° C., 5% CO2 prior to induction of ER stress by addition of tunicamycin to […] for 2 hours. Cells were lysed and TR-FRET was measured in an EnVision plate reader (PerkinElmer). FRET ratio data was normalized to signal from lysates treated with DMSO vehicle control and plotted as percent inhibition against 10-point; 3-fold dilution series of inhibitors. IC50 values were calculated using 4-parameter logistical fitting in XLFit.

EIF2AK3 (PERK) catalytic domain (amino acids 536-1116), sequence (Q9NZJ5 536-1116): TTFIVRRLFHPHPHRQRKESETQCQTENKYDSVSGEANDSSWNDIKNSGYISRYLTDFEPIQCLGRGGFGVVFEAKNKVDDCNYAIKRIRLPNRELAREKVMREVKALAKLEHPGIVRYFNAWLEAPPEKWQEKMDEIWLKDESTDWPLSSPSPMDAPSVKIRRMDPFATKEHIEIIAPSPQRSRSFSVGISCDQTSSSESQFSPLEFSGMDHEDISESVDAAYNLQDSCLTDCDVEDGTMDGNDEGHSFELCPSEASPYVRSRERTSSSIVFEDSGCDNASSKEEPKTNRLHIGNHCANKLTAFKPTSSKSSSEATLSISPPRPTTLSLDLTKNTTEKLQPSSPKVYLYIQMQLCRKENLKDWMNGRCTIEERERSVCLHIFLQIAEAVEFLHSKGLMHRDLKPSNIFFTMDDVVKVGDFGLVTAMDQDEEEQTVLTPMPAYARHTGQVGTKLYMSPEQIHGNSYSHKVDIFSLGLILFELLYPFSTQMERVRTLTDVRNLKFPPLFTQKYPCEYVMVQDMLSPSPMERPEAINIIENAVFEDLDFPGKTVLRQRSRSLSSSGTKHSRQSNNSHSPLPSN
PERK, sequence (Q9NZJ5 30-1116): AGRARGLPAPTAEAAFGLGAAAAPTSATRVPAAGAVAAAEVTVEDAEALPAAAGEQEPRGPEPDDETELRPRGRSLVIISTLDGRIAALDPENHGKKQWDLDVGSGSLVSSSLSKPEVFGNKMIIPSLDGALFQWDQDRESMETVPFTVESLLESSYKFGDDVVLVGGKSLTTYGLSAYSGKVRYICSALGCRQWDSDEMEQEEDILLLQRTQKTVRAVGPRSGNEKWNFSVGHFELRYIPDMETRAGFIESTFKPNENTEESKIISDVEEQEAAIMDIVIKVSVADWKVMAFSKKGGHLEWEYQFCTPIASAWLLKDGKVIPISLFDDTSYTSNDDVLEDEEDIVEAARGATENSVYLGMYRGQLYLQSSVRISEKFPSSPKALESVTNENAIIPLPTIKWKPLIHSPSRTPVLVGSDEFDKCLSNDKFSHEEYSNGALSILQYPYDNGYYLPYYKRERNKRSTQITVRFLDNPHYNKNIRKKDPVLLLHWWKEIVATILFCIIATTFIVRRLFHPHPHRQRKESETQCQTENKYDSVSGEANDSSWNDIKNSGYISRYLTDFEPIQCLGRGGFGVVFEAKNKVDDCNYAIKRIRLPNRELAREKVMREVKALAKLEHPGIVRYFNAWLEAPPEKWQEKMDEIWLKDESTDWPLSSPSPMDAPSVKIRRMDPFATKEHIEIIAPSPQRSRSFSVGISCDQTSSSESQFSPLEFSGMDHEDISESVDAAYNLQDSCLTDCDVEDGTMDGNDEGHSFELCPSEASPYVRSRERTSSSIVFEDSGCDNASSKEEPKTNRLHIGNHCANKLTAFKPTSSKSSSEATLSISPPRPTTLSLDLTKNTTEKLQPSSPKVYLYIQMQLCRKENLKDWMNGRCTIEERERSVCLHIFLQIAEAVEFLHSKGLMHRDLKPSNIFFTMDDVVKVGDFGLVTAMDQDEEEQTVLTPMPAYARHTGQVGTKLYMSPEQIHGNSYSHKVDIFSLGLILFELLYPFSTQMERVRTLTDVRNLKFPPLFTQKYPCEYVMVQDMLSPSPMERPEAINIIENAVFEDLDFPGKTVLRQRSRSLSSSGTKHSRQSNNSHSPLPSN

SMILES	pIC50 [1]	IC50 (PERK)
Cc1cc(NC(=O)C(O)c2cc(F)cc(F)c2)ccc1-c1cnc(N)c(C(=O)NC2CNC2)c1 (stereo not shown) [Example 44, 2-amino-N-(azetidin-3-yl)-5-(4-(2-(3,5-difluorophenyl)-2-hydroxyacetamido)-2-methylphenyl) nicotinamide]	7.60 to 9.00	3 to 4 µM
CCc1cc(NC(=O)C(O)c2cc(F)cc(F)c2)ccc1-c1cnc(N)c(C(=O)NC2CC2)c1 (stereo not shown) [Example 103, 2-amino-N-cyclopropyl-5-(4-(2-(3,5-difluorophenyl)-2-hydroxyacetamido)-2-ethylphenyl) nicotinamide]	7.30 to 7.59	0.101 to 0.25 µM
CC(C)NC(=O)c1cc(-c2ccc(NC(=O)C(O)c3cc(F)cc(F)c3)cc2OC(F)(F)F)cnc1N (stereo not shown) [Example 114, 2-amino-5-(4-(2-(3,5-difluorophenyl)-2-hydroxyacetamido)-2-(trifluoromethoxy)phenyl)-N-isopropylnicotinamide]	6.30 to 6.60	> 5 µM
CNC(=O)c1cc(-c2ccc(NC(=O)C(O)c3cc(F)cc(F)c3)cc2C)cnc1N (single isomer, unassigned) [Example 10, 2-amino-5-(4-(2-(3,5-difluorophenyl)-2-hydroxyacetamido)-2-methylphenyl)-N-methylnicotinamide]	7.60 to 9.00	0.051 to 0.1 µM
CCc1cc(NC(=O)C(O)c2cccc(Cl)c2)ccc1-c1cnc(N)c(C(=O)NC(C)C)c1 (single isomer, unassigned) [Example 109, 2-amino-5-(4-(2-(3-chlorophenyl)-2-hydroxyacetamido)-2-ethylphenyl)-N-isopropylnicotinamide]	7.00 to 7.29	0.101 to 0.25 µM
Cc1ccc(CC(=O)Nc2ccc(-c3cnc(N)c(C(=O)NC(C)C)c3)c(C)c2)cc1 [Example 197, 2-amino-N-isopropyl-5-(2-methyl-4-(2-(p-tolyl)acetamido)phenyl)nicotinamide]	6.60 to 7.00	1 to 2 µM
COC(C(=O)Nc1ccc(-c2cnc(N)c(C(=O)NC(C)C)c2)c(C)c1)c1ccccc1 (stereo not shown) [Example 5, 2-amino-N-isopropyl-5-(4-(2-methoxy-2-phenylacetamido)-2-methylphenyl) nicotinamide]	5.70 to 6.00	3 to 4 µM
Cc1cc(NC(=O)Cc2ccc(F)cc2)ccc1-c1cnc(N)c(C(=O)NC(C)C)c1 [Example 191, 2-amino-5-(4-(2-(4-fluorophenyl)acetamido)-2-methylphenyl)-N-isopropylnicotinamide]	7.00 to 7.29	1 to 2 µM
CCc1cccc(C(O)C(=O)Nc2ccc(-c3cnc(N)c(C(=O)NC(C)C)c3)c(CC)c2)c1 (stereo not shown) [Example 107, 2-amino-5-(2-ethyl-4-(2-(3-ethylphenyl)-2-hydroxyacetamido)phenyl)-N-isopropylnicotinamide]	7.00 to 7.29	0.251 to 0.5 µM
Cc1cc(NC(=O)C(O)c2cccc3cnn(C)c23)ccc1-c1cnc(N)c(C(=O)NC(C)C)c1 (stereo not shown) [Example 77, 2-amino-5-(4-(2-hydroxy-2-(1-methyl-1H-indazol-7-yl)acetamido)-2-methylphenyl)-N-isopropylnicotinamide]	6.00 to 6.30	3 to 4 µM
CCc1ccccc1CC(=O)Nc1ccc(-c2cnc(N)c(C(=O)NC(C)C)c2)c(C)c1 [Example 204, 2-amino-5-(4-(2-(2-ethylphenyl)acetamido)-2-methylphenyl)-N-isopropylnicotinamide]	6.60 to 7.00	–
Cc1ccccc1C(O)C(=O)Nc1ccc(-c2cnc(N)c(C(=O)NC(C)C)c2)c(Cl)c1 (stereo not shown) [Example 90, 2-amino-5-(2-chloro-4-(2-hydroxy-2-(o-tolyl)acetamido)phenyl)-N-isopropylnicotinamide]	–	0.051 to 0.1 µM
COCCNC(=O)c1nc(-c2ccc(NC(=O)C(O)c3cc(F)cc(F)c3)cc2C)cnc1N (single isomer, unassigned) [Example 147, 3-amino-6-(4-(2-(3,5-difluorophenyl)-2-hydroxyacetamido)-2-methylphenyl)-N-(2-methoxyethyl) pyrazine-2-carboxamide]	–	0.026 to 0.05 µM
Cc1cccc(C(O)C(=O)Nc2ccc(-c3cnc(N)c(C(=O)NC(C)C)c3)c(Cl)c2)c1 (stereo not shown) [Example 93, 2-amino-5-(2-chloro-4-(2-hydroxy-2-(m-tolyl)acetamido)phenyl)-N-isopropylnicotinamide]	–	0.101 to 0.25 µM
Cc1cc(NC(=O)C(O)c2cc(F)cc(F)c2)ccc1-c1cnc(N)c(C(=O)NC2CCOCC2)c1 (stereo not shown) [Example 50, 2-amino-5-(4-(2-(3,5-difluorophenyl)-2-hydroxyacetamido)-2-methylphenyl)-N-(tetrahydro-2H-pyran-4-yl)nicotinamide]	–	0.051 to 0.1 µM
CC(C)NC(=O)c1nc(-c2ccc(NC(=O)C(O)c3cc(F)cc(F)c3)cc2Cl)cnc1N (stereo not shown) [Example 163, 3-amino-6-(2-chloro-4-(2-(3,5-difluorophenyl)-2-hydroxyacetamido)phenyl)-N-isopropylpyrazine-2-carboxamide]	–	0.051 to 0.1 µM
COCCNC(=O)c1cc(-c2ccc(NC(=O)C(O)c3cc(F)cc(F)c3)cc2C)cnc1N (stereo not shown) [Example 54, 2-amino-5-(4-(2-(3,5-difluorophenyl)-2-hydroxyacetamido)-2-methylphenyl)-N-(2-methoxyethyl) nicotinamide]	–	0.051 to 0.1 µM
CC(C)NC(=O)c1nc(-c2ccc(NC(=O)C(O)c3cc(F)cc(F)c3)cc2Cl)cnc1N (stereo not shown) [Example 162, 3-amino-6-(2-chloro-4-(2-(3,5-difluorophenyl)-2-hydroxyacetamido)phenyl)-N-isopropylpyrazine-2-carboxamide]	–	0.101 to 0.25 µM
COCCNC(=O)c1nc(-c2ccc(NC(=O)C(O)c3cc(F)cc(F)c3)cc2C)cnc1N (single isomer, unassigned) [Example 148, 3-amino-6-(4-(2-(3,5-difluorophenyl)-2-hydroxyacetamido)-2-methylphenyl)-N-(2-methoxyethyl) pyrazine-2-carboxamide]	–	0.501 to 1 µM
CCc1cc(NC(=O)C(O)c2ccccc2C)ccc1-c1cnc(N)c(C(=O)NC(C)C)c1 (single isomer, unassigned) [Example 105, 2-amino-5-(2-ethyl-4-(2-hydroxy-2-(o-tolyl)acetamido)phenyl)-N-isopropylnicotinamide]	–	0.501 to 1 µM
Cc1cc(NC(=O)C(O)c2cc(F)cc(F)c2)ccc1-c1cnc(N)c(C(=O)NC2CCC2)n1 (stereo not shown) [Example 140, 3-amino-N-cyclobutyl-6-(4-(2-(3,5-difluorophenyl)-2-hydroxyacetamido)-2-methylphenyl) pyrazine-2-carboxamide]	–	0.026 to 0.05 µM
Cc1cc(NC(=O)C(O)c2cc(F)cc(F)c2)ccc1-c1cnc(N)c(C(=O)NC2CCOCC2)n1 (single isomer, unassigned) [Example 144, 3-amino-6-(4-(2-(3,5-difluorophenyl)-2-hydroxyacetamido)-2-methylphenyl)-N-(tetrahydro-2H-pyran-4-yl)pyrazine-2-carboxamide]	–	0.501 to 1 µM
Cc1cccc(C(O)C(=O)Nc2ccc(-c3cnc(N)c(C(=O)NC(C)C)c3)c(Cl)c2)c1 (stereo not shown) [Example 92, 2-amino-5-(2-chloro-4-(2-hydroxy-2-(m-tolyl)acetamido)phenyl)-N-isopropylnicotinamide]	–	0.001 to 0.025 µM
Cc1cc(NC(=O)C(O)c2cc(F)cc(F)c2)ccc1-c1cnc(N)c(C(=O)NC2CCOCC2)n1 (single isomer, unassigned) [Example 145, 3-amino-6-(4-(2-(3,5-difluorophenyl)-2-hydroxyacetamido)-2-methylphenyl)-N-(tetrahydro-2H-pyran-4-yl)pyrazine-2-carboxamide]	–	0.051 to 0.1 µM
